The text below walks through data of PMC3994029 (PLoS ONE, 2014).

Common to all, as to assay: competition of […]-glucose uptake by germinating conidia
Common to all, as to format: cell-based

Assay [1] has as its target T1, MstC (SorA) (Aspergillus nidulans, UniProt Q5AYG1).
T1 construct: gene ANIA_06669; native full-length protein, 534 aa, in intact germinating conidia (4 h, glycerol)
T1 sequence (Q5AYG1 1-534): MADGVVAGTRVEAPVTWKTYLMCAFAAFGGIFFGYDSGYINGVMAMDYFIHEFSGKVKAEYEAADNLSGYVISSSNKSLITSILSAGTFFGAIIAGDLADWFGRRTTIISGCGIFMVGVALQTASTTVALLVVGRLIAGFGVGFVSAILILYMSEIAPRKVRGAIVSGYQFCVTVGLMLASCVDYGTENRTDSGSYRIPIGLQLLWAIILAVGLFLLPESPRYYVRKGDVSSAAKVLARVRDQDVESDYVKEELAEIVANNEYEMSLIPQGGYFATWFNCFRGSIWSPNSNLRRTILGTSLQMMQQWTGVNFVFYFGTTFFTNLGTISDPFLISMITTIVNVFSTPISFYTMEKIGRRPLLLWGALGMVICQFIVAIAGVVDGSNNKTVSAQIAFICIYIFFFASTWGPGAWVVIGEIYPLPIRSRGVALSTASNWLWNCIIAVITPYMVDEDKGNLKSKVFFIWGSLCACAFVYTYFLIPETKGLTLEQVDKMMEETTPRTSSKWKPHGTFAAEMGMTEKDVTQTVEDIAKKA
The settings on record: wild type V004 conidia germinated on glycerol; 16 µM 14C-glucose, 200-fold excess competitor (3.2 mM).

Another assay deals with T2, MstA (Aspergillus nidulans, UniProt Q5ASJ3).
T2 construct: gene ANIA_08737; full-length protein, 527 aa, homologous expression from mstC promoter in mstA mstC double-deleted A. nidulans; intact germinating conidia
T2 sequence (Q5ASJ3 entry or part of it): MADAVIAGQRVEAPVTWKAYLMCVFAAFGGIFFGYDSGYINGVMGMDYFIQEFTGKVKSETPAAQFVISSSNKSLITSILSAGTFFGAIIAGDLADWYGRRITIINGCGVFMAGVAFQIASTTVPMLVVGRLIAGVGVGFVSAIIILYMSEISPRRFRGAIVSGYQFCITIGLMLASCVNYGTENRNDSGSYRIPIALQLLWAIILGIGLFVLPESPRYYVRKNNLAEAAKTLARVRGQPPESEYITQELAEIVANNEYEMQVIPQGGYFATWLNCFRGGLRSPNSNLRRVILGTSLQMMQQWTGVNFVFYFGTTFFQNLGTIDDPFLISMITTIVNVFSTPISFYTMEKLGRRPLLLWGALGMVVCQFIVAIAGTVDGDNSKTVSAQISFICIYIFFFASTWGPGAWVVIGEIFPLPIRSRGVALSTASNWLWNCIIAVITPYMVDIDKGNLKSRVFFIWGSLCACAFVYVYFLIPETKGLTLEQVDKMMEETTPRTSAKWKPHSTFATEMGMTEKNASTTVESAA
The note with it: V152 conidia germinated on glycerol; 90 µM 14C-glucose, 200-fold excess competitor (18 mM); minor low-affinity background uptake.

Assay [2] concerns the target T1, MstC (SorA). The settings on record: wild type V004 conidia germinated on glycerol; 16 µM 14C-glucose, 200-fold excess competitor (3.2 mM). The source holds these as a separate data set.

Structures are written as SMILES.

For `OC[C@H]1OC(O)C[C@@H](O)[C@@H]1O` (stereo partly drawn) [2-DOG], the “relative uptake rate, % of control” value on MstC (SorA) [1] is “most effective competitor, along with the glucose analogues 2-DOG and 3-O-methyl glucose”.
Still for that read-out and setting: the value for `CO[C@H]1[C@H](O)[C@@H](CO)OC(O)[C@@H]1O` (stereo partly drawn) [3-O-methyl glucose] was “most effective competitor, along with the glucose analogues 2-DOG and 3-O-methyl glucose”.
Take `OC[C@H]1OC(O)[C@H](O)[C@@H](O)[C@H]1O` (stereo partly drawn) [galactose]: at MstA, the “relative uptake rate, % of control” value is “xylose and galactose may also be minor physiological sugar substrates for this transporter”.
For `OC[C@H]1OC(O)[C@@H](O)[C@@H](O)[C@@H]1O` (stereo partly drawn) [mannose], the “% reduction of uptake” value on MstC (SorA) [2] is given as 80%. On MstA, the “relative uptake rate, % of control” value is recorded as “mannose is the most effective substrate of those studied in competing against glucose uptake”.
Take `OC1OC[C@@H](O)[C@H](O)[C@H]1O` (stereo partly drawn) [xylose]: the “relative uptake rate, % of control” value on MstA was “xylose and galactose may also be minor physiological sugar substrates for this transporter”.
